Source: patent publication US9981960B2, “Pyrrolidine compound and application as melanocortin receptor agonist” (MITSUBISHI TANABE PHARMA CORPORATION, priority 2014, dated 2018)

Biological target: T1, Human MC1R (Homo sapiens, UniProt Q01726)
T1 construct: endogenous in cells; host or cells: human melanoma cell line HBL
Assay: MCR agonist measurement (cAMP measurement), human MC1R agonist activity in human melanoma cell line HBL
Type: cell-based
Details: HBL cells; for EC50: 37° C. for 30 minutes, intracellular cAMP by fluorescence method; for Human MC1R IA %: Intrinsic Activity, vehicle cAMP = 0%, αMSH at 10^-6 M = 100%
Experimental: (1) Method for Culturing Cells
Human MC1R agonist activity measurement was carried out by using human melanoma cell line HBL. Culture of HBL: F-10 Nutrient Mixture containing 10% FCS and Penicillin-streptomycin was used in the culture.
(2) cAMP Assay and Data Calculation
Each compound solution having each concentration was mixed with cAMP assay buffer (HBSS (Hank's Balanced Salt Solution) containing 10 mM HEPES and 0.1% BSA), and dispensed into 96 well plate. HBL was suspended in cAMP assay buffer containing 0.5 mM IBMX so that the concentrate became 5×10^4/mL, dispensed into the above 96 well plate, then mixed, left to stand at 37° C. for 30 minutes, and then the intracellular […] concentration was measured by fluorescence method using Envision (ex. 320 nm, em. 590 nm and 665 nm).

T1 sequence (Q01726 whole entry): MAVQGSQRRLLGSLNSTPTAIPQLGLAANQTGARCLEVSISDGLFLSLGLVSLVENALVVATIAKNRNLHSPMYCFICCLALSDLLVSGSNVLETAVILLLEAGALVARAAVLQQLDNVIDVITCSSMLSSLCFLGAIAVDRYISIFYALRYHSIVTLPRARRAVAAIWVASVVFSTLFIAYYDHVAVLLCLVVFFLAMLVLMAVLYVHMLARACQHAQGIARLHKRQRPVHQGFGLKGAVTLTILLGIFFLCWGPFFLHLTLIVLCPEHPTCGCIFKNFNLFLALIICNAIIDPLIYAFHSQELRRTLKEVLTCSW

EC50	Human MC1R IA %	Compound
734 nM	67%	COc1ccc([C@@H]2CN(C3CCCC3)C[C@@]2(F)C(=O)N2CCCC(c3ccc(C(F)(F)F)cc3N3CCC(C(=O)O)CC3)C2)cc1 (single isomer, unassigned) [Example 291]
217 nM	25%	COc1ccc([C@@H]2CN(C3CCCC3)C[C@@]2(F)C(=O)N2CCCC(c3ccc(C(F)(F)F)cc3N3CCC(C(=O)O)CC3)C2)cc1 (single isomer, unassigned) [Example 292]
20 nM	99%	COc1ccc([C@@H]2CN(C3CCCC3)C[C@@]2(F)C(=O)N2CC(c3ccc(C(F)(F)F)cc3N3CCC(C(=O)O)CC3)C(F)(F)C2)cc1 (single isomer, unassigned) [Example 293]
804 nM	81%	COc1ccc([C@@H]2CN(C3CCCC3)C[C@@]2(F)C(=O)N2CC(c3ccc(C(F)(F)F)cc3N3CCC(C(=O)O)CC3)C(F)(F)C2)cc1 (single isomer, unassigned) [Example 294]
–	88%	COC[C@H]1CN(C(=O)[C@]2(F)CN(C3CCCC3)C[C@H]2c2ccc(OC)cc2)C[C@@H]1c1ccc(C(F)(F)F)cc1N1CCC(C(=O)O)CC1 [Example 19]
17 nM	74%	COC[C@H]1CN(C(=O)[C@]2(F)CN(C3CCCC3)C[C@H]2c2ccc(C)cc2)C[C@@H]1c1ccc(C(F)(F)F)cc1N1CCC(C(=O)O)CC1 [Example 22]
6.5 nM	78%	COC[C@H]1CN(C(=O)[C@]2(F)CN(C3CCCCC3)C[C@H]2c2ccc(OC)cc2)C[C@@H]1c1ccc(C(F)(F)F)cc1N1CCC(C(=O)O)CC1 [Example 27]
23 nM	105%	COc1ccc([C@@H]2CN(CCCS(=O)(=O)N3CCCC3)C[C@@]2(F)C(=O)N2CCC(c3ccc(C(F)(F)F)cc3N3CCC(C(=O)O)CC3)CC2)cc1 [Example 45]
1.2 nM	98%	COC[C@H]1CN(C(=O)[C@]2(F)CN(c3ccnc(C)c3)C[C@H]2c2ccc(OC)cc2)C[C@@H]1c1ccc(C(F)(F)F)cc1N1CCC(C(=O)O)CC1 [Example 59]
30 nM	69%	COC[C@H]1CN(C(=O)[C@]2(F)CN(c3ccnc(OC)c3)C[C@H]2c2ccc(OC)cc2)C[C@@H]1c1ccc(C(F)(F)F)cc1N1CCC(C(=O)O)CC1 [Example 61]
24 nM	92%	COC[C@H]1CN(C(=O)[C@]2(F)CN(c3ccc(C)nn3)C[C@H]2c2ccc(OC)cc2)C[C@@H]1c1ccc(C(F)(F)F)cc1N1CCC(C(=O)O)CC1 [Example 63]
19 nM	53%	COC[C@H]1CN(C(=O)[C@]2(F)CN(c3ccc(OC)nn3)C[C@H]2c2ccc(OC)cc2)C[C@@H]1c1ccc(C(F)(F)F)cc1N1CCC(C(=O)O)CC1 [Example 64]
2 nM	78%	COC[C@@H]1C[C@@H](c2ccc(C(F)(F)F)cc2N2CCC(C(=O)O)CC2)CN1C(=O)[C@]1(F)CN(c2ccnc(C)n2)C[C@H]1c1ccc(OC)cc1 [Example 67]
0.94 nM	111%	COC[C@@H]1C[C@@H](c2ccc(C(F)(F)F)cc2N2CCC(C(=O)O)CC2)CN1C(=O)[C@]1(F)CN(c2ccnc(C)c2)C[C@H]1c1ccc(OC)cc1 [Example 68]
57 nM	111%	COc1ccc([C@@H]2CN(C(C)(C)C)C[C@@]2(F)C(=O)N2CCC(c3ccc(C(F)(F)F)cc3N3CCC(C(=O)O)CC3)CC2)c(F)c1 [Example 75]
69 nM	83%	COc1ccc([C@@H]2CN(C(C)(C)C)C[C@@]2(F)C(=O)N2CCC(c3ccc(C(F)(F)F)cc3-c3ccc(C(=O)O)cc3)CC2)cc1 [Example 77]
67 nM	103%	COc1ccc([C@@H]2CN(C(C)(C)C)C[C@@]2(F)C(=O)N2CCC(c3ccc(C(F)(F)F)cc3-c3nc(C(=O)O)co3)CC2)cc1 [Example 79]
40 nM	119%	COc1ccc([C@@H]2CN(C(C)(C)C)C[C@@]2(F)C(=O)N2CC(c3ccc(C(F)(F)F)cc3N3CCC(C(=O)O)CC3)C2)cc1 [Example 84]
60 nM	75%	COc1ccc([C@@H]2CN(C(C)(C)C)C[C@@]2(F)C(=O)N2CCC(c3ccc(C(F)(F)F)cc3[C@H]3CC[C@H](C(=O)O)CC3)CC2)cc1 [Example 85]
56 nM	90%	COc1ccc([C@@H]2CN(C(C)(C)C)C[C@@]2(F)C(=O)N2CCC(C#N)(c3ccc(C(F)(F)F)cc3-c3ccc(C(=O)O)cc3)CC2)cc1 [Example 87]
44 nM	74%	CCc1ccc([C@@H]2CN(C(C)(C)C)C[C@@]2(F)C(=O)N2CCC(c3ccc(C(F)(F)F)cc3N3CCC(C(=O)O)CC3)CC2)cc1 [Example 91]

EC50	Human MC1R IA %	Compound
49 nM	83%	COc1ccc([C@@H]2CN(C(C)(C)C)C[C@@]2(F)C(=O)N2CCC(c3ccc(C(F)(F)F)cc3N3C[C@@H]4[C@H](C3)[C@H]4C(=O)O)CC2)cc1 [Example 94]
12 nM	72%	COC[C@H]1CN(C(=O)[C@]2(F)CN(C3CCOCC3)C[C@H]2c2ccc(OC)cc2)C[C@@H]1c1ccc(C(F)(F)F)cc1N1CCC(C(=O)O)CC1 [Example 95]
15 nM	89%	COc1ccc([C@@H]2CN([C@H]3CC[C@H](OC)CC3)C[C@@]2(F)C(=O)N2CCC(c3ccc(C(F)(F)F)cc3N3CCC(C(=O)O)CC3)CC2)cc1 [Example 98]
4.7 nM	117%	COC[C@H]1CN(C(=O)[C@]2(F)CN([C@H]3CC[C@H](OC)CC3)C[C@H]2c2ccc(OC)cc2)C[C@@H]1c1ccc(C(F)(F)F)cc1N1CCC(C(=O)O)CC1 [Example 99]
9.7 nM	90%	COc1ccc([C@@H]2CN(C3CCCC3)C[C@@]2(F)C(=O)N2C[C@H](c3ccc(F)cc3N3CCC(C(=O)O)CC3)[C@@H](C)C2)cc1 [Example 100]
14 nM	102%	COC[C@H]1CN(C(=O)[C@]2(F)CN([C@H]3CC[C@H](OC)CC3)C[C@H]2c2ccc(OC)cc2)C[C@@H]1c1ccc(C(F)(F)F)cc1N1CCC(C)(C(=O)O)CC1 [Example 103]
–	86%	COc1ccc([C@@H]2CN(C3CCCC3)C[C@@]2(F)C(=O)N2C[C@H](c3ccc(C(F)(F)F)cc3N3CCC(C(=O)O)CC3)C[C@H]2CC#N)cc1 [Example 105]
5.9 nM	83%	COC[C@@H]1C[C@@H](c2ccc(Cl)cc2N2CCC(C(=O)O)CC2)CN1C(=O)[C@]1(F)CN([C@H]2CC[C@H](OC)CC2)C[C@H]1c1ccc(OC)cc1 [Example 111]
11 nM	85%	COC[C@@H]1C[C@@H](c2ccc(C(F)(F)F)cc2N(C)CCCC(=O)O)CN1C(=O)[C@]1(F)CN([C@H]2CC[C@H](OC)CC2)C[C@H]1c1ccc(OC)cc1 [Example 115]
15 nM	53%	CCO[C@H]1CC[C@@H](N2C[C@@H](c3ccc(OC)cc3)[C@](F)(C(=O)N3C[C@H](COC)[C@@H](c4ccc(C(F)(F)F)cc4N4CCC(C(=O)O)CC4)C3)C2)CC1 [Example 119]
8.8 nM	109%	COC[C@@]1(F)CN(C(=O)[C@]2(F)CN([C@H]3CC[C@H](OC)CC3)C[C@H]2c2ccc(OC)cc2)C[C@@H]1c1ccc(C(F)(F)F)cc1N1CCC(C(=O)O)CC1 [Example 120]
24 nM	74%	COC[C@H]1CN(C(=O)[C@]2(OC)CN(C3CCCC3)C[C@H]2c2ccc(OC)cc2)C[C@@H]1c1ccc(C(F)(F)F)cc1N1CCC(C(=O)O)CC1 [Example 125]
11 nM	76%	COC[C@H]1CN(C(=O)[C@]2(F)CN(C3CCCC3)C[C@H]2c2ccc(OC)cc2)C[C@@H]1c1ccc(OC(F)(F)F)cc1N1CCC(C(=O)O)CC1 [Example 130]
0.45 nM	96%	COC[C@@H]1C[C@@H](c2ccc(C(F)(F)F)cc2N2CCC(C(=O)O)CC2)CN1C(=O)[C@]1(F)CN(C2CCCC2)C[C@H]1c1ccc(OC)cc1 [Example 134]
0.47 nM	96%	COC[C@@H]1C[C@@H](c2ccc(C(F)(F)F)cc2N2CCC(C(=O)O)CC2)CN1C(=O)[C@]1(F)CN([C@H]2CC[C@H](OC)CC2)C[C@H]1c1ccc(OC)cc1 [Example 135]
7.3 nM	106%	COC[C@@H]1C[C@@H](c2ccc(C(F)(F)F)cc2N2CCC(C(=O)O)CC2)CN1C(=O)[C@]1(F)CN(C2CCOCC2)C[C@H]1c1ccc(OC)cc1 [Example 137]
0.98 nM	111%	COC[C@@H]1C[C@@H](c2ccc(C(F)(F)F)cc2N2CCC(C(=O)O)CC2)CN1C(=O)[C@]1(F)CN(C2CCCCC2)C[C@H]1c1ccc(OC)cc1 [Example 138]
0.8 nM	80%	COC[C@@H]1C[C@@H](c2ccc(C(F)(F)F)cc2N2CCC(C(=O)O)CC2)CN1C(=O)[C@]1(F)CN(C2CCC2)C[C@H]1c1ccc(OC)cc1 [Example 139]
4.1 nM	98%	CCO[C@H]1CC[C@H](N2C[C@@H](c3ccc(OC)cc3)[C@](OC)(C(=O)N3C[C@H](COC)[C@@H](c4ccc(C(F)(F)F)cc4N4CCC(C(=O)O)CC4)C3)C2)CC1 [Example 140]
3.6 nM	105%	CCO[C@H]1CC[C@H](N2C[C@@H](c3ccc(OC)cc3)[C@](OC)(C(=O)N3C[C@H](c4ccc(C(F)(F)F)cc4N4CCC(C(=O)O)CC4)[C@@](F)(COC)C3)C2)CC1 [Example 141]
